Active and inactive are the calls of the source. The calls are words filed in the database; no cut-off is given here.

The assay deals with Human immunodeficiency virus. The experiment in a line: Antiviral activity against HIV. The assay is classed as functional, organism-based.
Regarding `O=c1ccn([C@H]2CC[C@@H](CO)[Se]2)c(=O)[nH]1`, the result was inactive.
In the case of `Nc1ccn([C@H]2CC[C@@H](CO)[Se]2)c(=O)n1`, the result was inactive.
The same measure for `Cc1cn([C@H]2CC[C@@H](CO)[Se]2)c(=O)[nH]c1=O`: “inactive”.

Values taken from ChEMBL document CHEMBL1152691, “Design and synthesis of novel 2',3'-dideoxy-4'-selenonucleosides as potential antiviral agents” (Bioorg Med Chem, 2008).
